Source: article PMC10454243, “Anticancer Study of a Novel Pan-HDAC Inhibitor MPT0G236 in Colorectal Cancer Cells” (International Journal of Molecular Sciences, 2023)
Where two headings read alike, the source gives them in different places.

Tests used:
[1] = tested on: HT-29 human colorectal cancer cells; assay: SRB cell proliferation (growth) assay, HT-29; assay type: cell-based; conditions: read-out: GI50 cell growth
Protocol: (§1) The impacts of MPT0G236 on cell viability (A,C) and cell growth (B) were evaluated with HCT-116 and HT-29 human colorectal cancer cells, as well as human umbilical vein endothelial cells (HUVECs). The cells were treated with different concentrations of the compound for 48 h. Cell viability was measured using an MTT assay, while cell growth was assessed using an SRB assay. The data are shown as the mean ± SEM on the basis of three independent experiments. […] The basal cells were fixed with 10% (w/v) trichloroacetic acid for 10 min. […] After treatment, the cells were fixed with 10% TCA, stained with SRB at a concentration of 0.4% (w/v), and washed with 1% acetic acid. After drying, the stained cells were lysed with 10 mM Trizma base, and the absorbance was measured at a wavelength of 515 nm.

[2] = tested on: HT-29 human colorectal cancer cells; assay: MTT cell viability assay, HT-29; assay type: cell-based; conditions: read-out: IC50 cell viability
[3] = tested on: HCT-116 human colorectal cancer cells; assay: SRB cell proliferation (growth) assay, HCT-116; assay type: cell-based; conditions: read-out: GI50 cell growth
Protocol: as §1

[4] = tested on: HDAC1; design: method as in PMID 27344487; conditions: Class I; cited from earlier work
[5] = tested on: acetyl-α-tubulin and acetyl-histone H3 in HCT-116 cells; assay: Western blot of acetyl-α-tubulin and acetyl-histone H3, HCT-116; assay type: cell-based, human; conditions: 24 h
Protocol: (§2) Figure 2 MPT0G236 induced acetylation of α-tubulin and histone H3 in human colorectal cells. (A) The structure of MPT0G236. […] Protein expression was quantified by using the computerized image analysis application in ImageJ software V1.53k. The data are shown as the mean ± SEM on the basis of at least three independent experiments. * p < 0.05, ** p < 0.01, *** p < 0.001 and **** p < 0.0001 compared with the control group.
(§3) Cells were washed with PBS and incubated with lysis buffer (20 mM HEPES, pH 7.4; 2 mM EGTA; 0.1% Triton X-100; 50 mM β-glycerophosphate; 1 mM DTT; 10% glycerol; 1 μg/mL leupeptin; 1 mM sodium orthovanadate; 1 mM phenylmethylsulfonyl fluoride; 5 μg/mL aprotinin) for 10 min at 4 °C. The cells were then scraped off and incubated on ice for an additional 10 min before being centrifuged at 17,000× g for 30 min at 4 °C. The total protein […] was determined, and equal amounts of proteins were separated by […] on sodium dodecyl sulfate polyacrylamide gels (SDS-PAGE) and transferred onto a nitrocellulose membrane. […] Signals were detected with chemiluminescence reagents (GE Healthcare Corp., Buckinghamshire, UK), and the membranes were scanned using a ChemiDocTM MP Imaging System. Protein levels in the Western blots were then quantified using ImageJ software V1.53k.

[6] = target: T1, HDAC9 (Homo sapiens, UniProt Q9UKV0); assay: HDAC enzyme inhibition assay, HDAC9; assay type: biochemical; conditions: Class IIa; Reaction Biology Corp. assay
T1 construct: purchased Reaction Biology Corp. (contract assay service)
Protocol: (§4) HDAC activity inhibition assays were performed by Reaction Biology Corp. (Malvern, PA, USA).

[7] = target: T2, HDAC7 (Homo sapiens, UniProt Q8WUI4); assay: HDAC enzyme inhibition assay, HDAC7; assay type: biochemical; conditions: Class IIa; Reaction Biology Corp. assay
T2 construct: purchased Reaction Biology Corp. (contract assay service)
T2 sequence (Q8WUI4 1-952): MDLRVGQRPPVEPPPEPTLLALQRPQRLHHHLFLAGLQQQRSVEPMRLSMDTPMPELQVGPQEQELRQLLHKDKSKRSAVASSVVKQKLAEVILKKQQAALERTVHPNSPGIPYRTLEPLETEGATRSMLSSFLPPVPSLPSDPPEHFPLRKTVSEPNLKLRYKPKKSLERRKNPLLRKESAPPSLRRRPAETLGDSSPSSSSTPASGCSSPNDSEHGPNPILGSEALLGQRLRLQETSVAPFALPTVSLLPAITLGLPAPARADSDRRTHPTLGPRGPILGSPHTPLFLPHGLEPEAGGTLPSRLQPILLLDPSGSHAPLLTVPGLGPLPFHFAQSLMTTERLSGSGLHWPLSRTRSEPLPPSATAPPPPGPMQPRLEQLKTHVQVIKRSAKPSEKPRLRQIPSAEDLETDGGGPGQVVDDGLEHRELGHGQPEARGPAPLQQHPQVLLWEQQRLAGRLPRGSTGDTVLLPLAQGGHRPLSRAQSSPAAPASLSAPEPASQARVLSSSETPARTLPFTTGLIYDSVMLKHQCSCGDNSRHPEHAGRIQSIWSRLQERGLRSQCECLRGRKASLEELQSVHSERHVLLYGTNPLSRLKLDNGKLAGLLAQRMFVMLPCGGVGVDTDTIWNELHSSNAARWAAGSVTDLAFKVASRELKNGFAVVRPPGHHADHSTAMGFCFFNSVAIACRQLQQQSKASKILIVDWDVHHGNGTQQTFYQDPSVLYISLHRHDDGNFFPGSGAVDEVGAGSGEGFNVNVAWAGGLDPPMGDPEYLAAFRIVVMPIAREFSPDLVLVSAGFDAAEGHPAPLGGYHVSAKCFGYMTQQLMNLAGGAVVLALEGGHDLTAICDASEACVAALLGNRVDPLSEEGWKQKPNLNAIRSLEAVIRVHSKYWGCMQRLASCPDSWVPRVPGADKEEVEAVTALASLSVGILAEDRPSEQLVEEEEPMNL
Protocol: as §4

[8] = target: T3, HDAC3 (Homo sapiens, UniProt O15379); assay: HDAC enzyme inhibition assay, HDAC3; assay type: biochemical; conditions: Class I; Reaction Biology Corp. assay
T3 construct: purchased Reaction Biology Corp. (contract assay service)
Protocol: as §4

[9] = tested on: PC-3 cells; design: method as in PMID 27344487; conditions: previous study, read-out: GI50 cell proliferation; cited from earlier work
[10] = tested on: human umbilical vein endothelial cells (HUVECs); assay: MTT cell viability assay, HUVEC; assay type: cell-based
[11] = tested on: HDAC2; design: method as in PMID 27344487; conditions: Class I; cited from earlier work
[12] = tested on: HCT-116 human colorectal cancer cells; assay: MTT cell viability assay, HCT-116; assay type: cell-based; conditions: 48 h
[13] = tested on: HCT-116 cells; design: method as in PMID 27344487; conditions: previous study, read-out: GI50 cell proliferation; cited from earlier work
[14] = tested on: HDAC6; design: method as in PMID 27344487; conditions: Class IIb; cited from earlier work
[15] = tested on: HDAC8; conditions: Class I; cited from earlier work
[16] = tested on: HCT-116 tumor; design: method as in PMID 27344487; conditions: cited from earlier work
[17] = tested on: A549 cells; design: method as in PMID 27344487; conditions: previous study, read-out: GI50 cell proliferation; cited from earlier work
[18] = target: T4, HDAC4 (Homo sapiens, UniProt P56524); assay: HDAC enzyme inhibition assay, HDAC4; assay type: biochemical; conditions: Class IIa; Reaction Biology Corp. assay
T4 construct: purchased Reaction Biology Corp. (contract assay service)
Protocol: as §4

[19] = tested on: acetyl-α-tubulin and acetyl-histone H3 in HT-29 cells; assay: Western blot of acetyl-α-tubulin and acetyl-histone H3, HT-29; assay type: cell-based, human; conditions: 24 h
Protocol: as §2, §3

[20] = target: T5, HDAC5 (Homo sapiens, UniProt Q9UQL6); assay: HDAC enzyme inhibition assay, HDAC5; assay type: biochemical; conditions: Class IIa; Reaction Biology Corp. assay
T5 construct: purchased Reaction Biology Corp. (contract assay service)
Protocol: as §4

[21] = design: method as in PMID 27344487; conditions: in vivo HCT-116 tumor study; cited from earlier work

T5 sequence (Q9UQL6 whole entry): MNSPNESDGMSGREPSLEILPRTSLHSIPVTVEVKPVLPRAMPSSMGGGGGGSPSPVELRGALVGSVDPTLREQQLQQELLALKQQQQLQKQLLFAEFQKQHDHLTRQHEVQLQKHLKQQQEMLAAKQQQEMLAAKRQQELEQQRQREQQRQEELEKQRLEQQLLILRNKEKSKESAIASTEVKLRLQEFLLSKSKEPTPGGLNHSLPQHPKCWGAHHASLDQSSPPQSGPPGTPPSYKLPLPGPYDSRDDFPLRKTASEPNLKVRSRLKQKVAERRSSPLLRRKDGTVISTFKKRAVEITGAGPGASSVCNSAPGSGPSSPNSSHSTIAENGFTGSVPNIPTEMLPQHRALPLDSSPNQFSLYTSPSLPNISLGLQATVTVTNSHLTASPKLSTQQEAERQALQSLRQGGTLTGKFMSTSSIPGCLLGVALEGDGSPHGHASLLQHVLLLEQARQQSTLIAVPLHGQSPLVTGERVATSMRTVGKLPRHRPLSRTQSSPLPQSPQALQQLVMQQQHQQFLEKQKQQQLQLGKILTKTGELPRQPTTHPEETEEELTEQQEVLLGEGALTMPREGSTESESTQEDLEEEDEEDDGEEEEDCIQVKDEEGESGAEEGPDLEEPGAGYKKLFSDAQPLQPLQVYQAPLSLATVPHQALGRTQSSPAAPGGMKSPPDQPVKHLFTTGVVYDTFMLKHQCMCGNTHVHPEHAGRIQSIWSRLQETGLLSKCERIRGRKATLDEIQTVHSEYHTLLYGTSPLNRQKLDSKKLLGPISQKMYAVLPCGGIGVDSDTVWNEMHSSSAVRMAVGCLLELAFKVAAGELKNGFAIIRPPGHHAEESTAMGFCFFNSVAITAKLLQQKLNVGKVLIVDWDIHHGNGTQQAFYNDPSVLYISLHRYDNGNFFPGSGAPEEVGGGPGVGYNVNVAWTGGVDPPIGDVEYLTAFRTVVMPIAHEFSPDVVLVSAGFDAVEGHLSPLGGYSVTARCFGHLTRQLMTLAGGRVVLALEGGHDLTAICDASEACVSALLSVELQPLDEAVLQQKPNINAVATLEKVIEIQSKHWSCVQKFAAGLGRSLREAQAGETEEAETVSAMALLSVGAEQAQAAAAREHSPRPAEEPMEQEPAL
T4 sequence (P56524 whole entry): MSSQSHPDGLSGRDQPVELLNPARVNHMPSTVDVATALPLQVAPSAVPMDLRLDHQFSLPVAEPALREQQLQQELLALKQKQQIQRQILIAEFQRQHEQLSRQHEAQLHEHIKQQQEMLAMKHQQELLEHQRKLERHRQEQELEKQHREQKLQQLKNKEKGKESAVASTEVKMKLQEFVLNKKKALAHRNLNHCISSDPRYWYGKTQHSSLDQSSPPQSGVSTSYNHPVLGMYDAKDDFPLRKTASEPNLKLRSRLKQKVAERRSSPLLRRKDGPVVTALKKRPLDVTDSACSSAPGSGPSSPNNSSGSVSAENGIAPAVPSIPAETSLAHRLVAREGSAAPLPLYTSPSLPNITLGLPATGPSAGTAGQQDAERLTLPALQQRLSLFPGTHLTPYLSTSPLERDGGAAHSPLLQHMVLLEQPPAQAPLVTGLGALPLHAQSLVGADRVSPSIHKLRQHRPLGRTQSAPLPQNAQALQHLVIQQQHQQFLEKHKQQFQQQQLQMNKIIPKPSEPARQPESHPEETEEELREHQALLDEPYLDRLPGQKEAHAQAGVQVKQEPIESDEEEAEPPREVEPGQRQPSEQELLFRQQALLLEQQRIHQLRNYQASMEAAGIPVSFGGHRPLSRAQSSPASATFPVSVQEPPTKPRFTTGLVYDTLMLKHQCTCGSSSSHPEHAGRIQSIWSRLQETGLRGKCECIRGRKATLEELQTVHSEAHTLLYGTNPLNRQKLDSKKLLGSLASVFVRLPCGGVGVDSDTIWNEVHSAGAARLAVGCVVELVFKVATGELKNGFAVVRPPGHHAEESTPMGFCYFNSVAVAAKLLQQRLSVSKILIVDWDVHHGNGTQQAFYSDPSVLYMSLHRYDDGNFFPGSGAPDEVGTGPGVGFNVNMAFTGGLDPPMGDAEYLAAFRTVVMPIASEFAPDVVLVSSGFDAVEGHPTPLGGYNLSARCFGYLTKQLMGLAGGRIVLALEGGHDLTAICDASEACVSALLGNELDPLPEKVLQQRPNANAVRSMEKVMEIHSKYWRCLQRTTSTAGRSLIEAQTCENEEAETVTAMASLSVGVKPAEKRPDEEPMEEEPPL
T3 sequence (O15379 whole entry): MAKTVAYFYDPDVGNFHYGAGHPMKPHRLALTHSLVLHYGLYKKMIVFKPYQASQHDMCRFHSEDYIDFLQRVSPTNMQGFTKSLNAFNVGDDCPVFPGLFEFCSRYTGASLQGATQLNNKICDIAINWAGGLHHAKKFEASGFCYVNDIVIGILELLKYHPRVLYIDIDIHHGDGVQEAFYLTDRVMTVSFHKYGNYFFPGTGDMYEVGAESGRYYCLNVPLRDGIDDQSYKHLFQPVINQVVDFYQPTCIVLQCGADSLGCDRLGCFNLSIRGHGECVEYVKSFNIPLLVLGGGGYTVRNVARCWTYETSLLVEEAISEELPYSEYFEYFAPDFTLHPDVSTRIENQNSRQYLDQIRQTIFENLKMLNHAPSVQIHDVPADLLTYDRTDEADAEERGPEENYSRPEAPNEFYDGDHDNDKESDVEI
T3 sequence (Q9Y618 395-489 partner limits assumed): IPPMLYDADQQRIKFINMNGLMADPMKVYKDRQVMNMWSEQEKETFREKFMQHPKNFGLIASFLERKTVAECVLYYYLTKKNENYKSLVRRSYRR
T1 sequence (Q9UKV0 whole entry): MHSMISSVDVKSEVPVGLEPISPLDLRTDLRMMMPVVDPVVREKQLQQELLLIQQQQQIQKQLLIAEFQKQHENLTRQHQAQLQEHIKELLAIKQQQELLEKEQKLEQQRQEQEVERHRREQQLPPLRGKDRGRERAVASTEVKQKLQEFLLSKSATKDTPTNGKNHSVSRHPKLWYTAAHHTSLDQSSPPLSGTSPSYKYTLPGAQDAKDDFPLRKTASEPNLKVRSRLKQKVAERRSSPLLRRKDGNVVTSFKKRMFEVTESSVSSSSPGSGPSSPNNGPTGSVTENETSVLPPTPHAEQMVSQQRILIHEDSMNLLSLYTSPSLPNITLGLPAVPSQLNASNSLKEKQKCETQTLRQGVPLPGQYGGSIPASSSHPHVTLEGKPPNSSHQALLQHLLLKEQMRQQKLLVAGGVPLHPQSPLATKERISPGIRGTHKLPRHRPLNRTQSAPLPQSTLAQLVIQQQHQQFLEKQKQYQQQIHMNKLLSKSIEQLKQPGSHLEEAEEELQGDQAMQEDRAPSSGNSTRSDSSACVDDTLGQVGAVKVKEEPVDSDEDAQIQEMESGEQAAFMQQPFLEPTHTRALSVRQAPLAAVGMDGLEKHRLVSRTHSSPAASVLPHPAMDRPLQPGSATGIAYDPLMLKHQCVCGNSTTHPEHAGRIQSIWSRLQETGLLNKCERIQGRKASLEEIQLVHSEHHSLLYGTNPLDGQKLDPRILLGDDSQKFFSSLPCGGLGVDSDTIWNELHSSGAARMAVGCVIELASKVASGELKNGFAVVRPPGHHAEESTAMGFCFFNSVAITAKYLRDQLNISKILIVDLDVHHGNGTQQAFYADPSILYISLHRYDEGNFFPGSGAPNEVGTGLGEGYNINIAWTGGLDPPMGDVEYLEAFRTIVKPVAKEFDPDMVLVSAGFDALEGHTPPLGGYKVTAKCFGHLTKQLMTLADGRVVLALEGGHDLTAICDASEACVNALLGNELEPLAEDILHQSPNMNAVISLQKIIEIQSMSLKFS

## O=C(CCCCCCC(=O)Nc1ccccc1)NO [SAHA, Suberoylanilide hydroxamic acid, reference compound]
[1]; HT-29, 48 h
  GI50: 470 nM
[2]; HT-29, 48 h
  IC50: 2310 nM
[3]; HCT-116, 48 h
  GI50: 630 nM

## O=C(/C=C/c1cccc(S(=O)(=O)c2ccc3ccccc3n2)c1)NO [MPT0G236]
[4]
  IC50: 14 nM
[5]
  concentration that significantly increased accumulation of acetyl-α-tubulin: 0.3 µM
  concentration that significantly increased histone acetylation: 1 µM
[1]; HT-29, SRB, 48 h
  GI50: 310 nM
[6]
  IC50: 12600 nM
[7]
  IC50: 12300 nM
[8]
  IC50: 70 nM
[9]
  GI50: 150 ± 10 nM
[10]; HUVEC IC50 versus HCT-116 and HT-29 IC50
  normal cells (HUVEC) less sensitive than colorectal cancer cells: more than 10 fold
[10]; Homo sapiens, HUVEC, 48 h
  IC50: 15100 nM
[2]; HT-29, MTT, 48 h
  IC50: 880 nM
[11]
  IC50: 11.5 nM
[12]
  IC50: 350 nM
[13]
  GI50: 80 ± 1 nM
[14]
  IC50: 15 nM
[15]
  IC50: 130 nM
[16]; oral administration of 50 mg/kg
  HCT-116 tumor growth suppression: 32.2%
[16]; oral administration of 100 mg/kg
  HCT-116 tumor growth suppression: 58.8%
[17]
  GI50: 270 ± 20 nM
[18]
  IC50: 19700 nM
[19]
  concentration that significantly elevated acetyl-α-tubulin: 3 µM
  concentration that significantly elevated histone acetylation: 1 µM
[20]
  IC50: 15500 nM
[3]; HCT-116, SRB, 48 h
  GI50: 100 nM
[21]
  effect on body weight: without affecting body weight
